Measurements as given in ChEMBL document CHEMBL2074260, “Role of breast cancer resistance protein in the bioavailability and fetal penetration of topotecan” (J Natl Cancer Inst, 2000).

Assays:
Assay type in all cases: functional, cell-based
[1] = molecular target: T1, Broad substrate specificity ATP-binding cassette transporter ABCG2 (Mus musculus, UniProt Q7TMS5); experiment: TP_TRANSPORTER: inhibition of Topotecan transepithelial transport (basal to apical) in Bcrp1-expressing LLC-PK1 cells; conditions: pig
T1 sequence (Q7TMS5 whole entry): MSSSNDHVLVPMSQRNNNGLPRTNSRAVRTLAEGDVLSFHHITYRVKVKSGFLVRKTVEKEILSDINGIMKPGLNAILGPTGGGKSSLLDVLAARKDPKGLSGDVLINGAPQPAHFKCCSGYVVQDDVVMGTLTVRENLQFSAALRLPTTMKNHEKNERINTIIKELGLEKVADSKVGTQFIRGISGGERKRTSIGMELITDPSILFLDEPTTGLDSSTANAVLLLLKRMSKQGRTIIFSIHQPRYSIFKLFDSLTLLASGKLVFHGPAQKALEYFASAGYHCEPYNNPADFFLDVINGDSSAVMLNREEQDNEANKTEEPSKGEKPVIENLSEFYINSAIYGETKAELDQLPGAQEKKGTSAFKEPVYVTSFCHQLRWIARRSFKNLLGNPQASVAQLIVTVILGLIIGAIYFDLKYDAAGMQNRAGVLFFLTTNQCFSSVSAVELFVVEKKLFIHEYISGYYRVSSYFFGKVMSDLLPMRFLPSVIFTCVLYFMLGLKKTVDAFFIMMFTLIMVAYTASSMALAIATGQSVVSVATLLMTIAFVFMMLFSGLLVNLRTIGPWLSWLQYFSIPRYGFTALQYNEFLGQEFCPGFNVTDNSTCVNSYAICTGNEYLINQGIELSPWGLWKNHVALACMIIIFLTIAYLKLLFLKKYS

[2] = molecular target: T1, Broad substrate specificity ATP-binding cassette transporter ABCG2; experiment: TP_TRANSPORTER: inhibition of Topotecan transepithelial transport (basal to apical)(Topotecan: 10uM, GF120918:10uM) in Bcrp1-expressing LLC-PK1 cells; conditions: pig, llc-pk1, 10 µM
[3] = molecular target: T1, Broad substrate specificity ATP-binding cassette transporter ABCG2; experiment: TP_TRANSPORTER: transepithelial transport (basal to apical) in Bcrp1-expressing LLC-PK1 cells; conditions: pig

C/C=C/C[C@@H](C)C(=O)[C@H]1C(=O)N[C@@H](C(C)C)C(=O)N(C)CC(=O)N(C)[C@@H](CC(C)C)C(=O)N[C@@H](C(C)C)C(=O)N(C)[C@@H](CC(C)C)C(=O)N[C@@H](C)C(=O)N[C@H](C)C(=O)N(C)[C@@H](CC(C)C)C(=O)N(C)[C@@H](CC(C)C)C(=O)N(C)[C@@H](C(C)C)C(=O)N1C [VALSPODAR]
Activity [1]: is not an inhibitor [-]

COc1cc2c(cc1OC)CN(CCc1ccc(NC(=O)c3cccc4c(=O)c5cccc(OC)c5[nH]c34)cc1)CC2.Cl [ELACRIDAR HYDROCHLORIDE]
Activity [2]: inhibitor [+]

CC[C@@]1(O)C(=O)OCc2c1cc1n(c2=O)Cc2cc3c(CN(C)C)c(O)ccc3nc2-1 [TOPOTECAN]
Activity [3]: substrate [+]
